# Assay results taken from patent US9637469B2, “Pyridine derivative” (Teijin Pharma Limited, priority 2012, dated 2017).
# Target: T1, human URAT1 (Homo sapiens, UniProt Q96S37)
# T1 construct: Full-length cDNA of human URAT1 (hURAT1)
# T1 sequence (Q96S37 1-553): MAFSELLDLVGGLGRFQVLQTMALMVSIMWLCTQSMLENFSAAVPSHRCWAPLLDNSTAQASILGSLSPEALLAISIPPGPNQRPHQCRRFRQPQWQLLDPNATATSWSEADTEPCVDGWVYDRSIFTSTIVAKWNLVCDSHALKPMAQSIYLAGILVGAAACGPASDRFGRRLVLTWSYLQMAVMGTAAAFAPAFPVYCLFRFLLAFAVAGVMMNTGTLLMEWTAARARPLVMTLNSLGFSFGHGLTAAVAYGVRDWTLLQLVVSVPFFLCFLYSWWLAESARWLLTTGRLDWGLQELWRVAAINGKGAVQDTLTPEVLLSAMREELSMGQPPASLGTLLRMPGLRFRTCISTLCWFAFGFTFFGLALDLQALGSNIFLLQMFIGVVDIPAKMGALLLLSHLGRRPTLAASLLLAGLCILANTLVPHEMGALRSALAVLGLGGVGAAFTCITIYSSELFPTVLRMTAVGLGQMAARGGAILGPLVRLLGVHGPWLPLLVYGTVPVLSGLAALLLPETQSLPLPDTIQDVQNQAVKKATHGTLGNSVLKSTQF
# Assay: Test for inhibition of uric acid transport using human URAT1-expressing cells;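 note: three stars up to 0.2 µM two stars 0.2-2 µM one star 2-20 µM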
# Assay type: cell-based
# Settings: HEK 293 cells expressing human URAT1; 14C-labeled uric acid 25 μM; uptake 37° C. for 5 min
# How it was run: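 IC50 values reflect inhibition of ¹⁴C-uric acid uptake (25 μM final, 5 min, 37 °C) by compound. Cells were HEK293 stably expressing full-length human URAT1, preincubated in Na-gluconate-substituted HBSS. Radioactivity in lysates was expressed relative to DMSO control as 100%.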
row,Inhibitory Activity (IC50 of uric acid transport inhibition),SMILES
1,* *,"CS(=O)(=O)NC(=O)c1c(C2CC2)nc(-c2cccnc2)n1Cc1cccc2ccsc12 [Compound A117, 1-(benzo[b]thiophen-7-ylmethyl)-4-cyclopropyl-N-(methylsulfonyl)-2-(pyridin-3-yl)-1H-imidazole-5-carboxamide]"
2,* *,"O=C(NS(=O)(=O)C1CC1)c1c(C2CC2)nc(-c2cccnc2)n1Cc1cccc2ccsc12 [Compound A118, 1-(benzo[b]thiophen-7-ylmethyl)-4-cyclopropyl-N-(cyclopropylsulfonyl)-2-(pyridin-3-yl)-1H-imidazole-5-carboxamide]"
3,* *,"Cc1nc(-c2cncc(Oc3ccccc3)c2)n(Cc2cccc3ccccc23)c1C(=O)O [Compound A130, 4-methyl-1-(naphthalen-1-ylmethyl)-2-(5-phenoxypyridin-3-yl)-1H-imidazole-5-carboxylic acid]"
4,* *,"Cc1nc(-c2cncc(Cl)c2)n(Cc2csc3ccccc23)c1C(=O)O [Compound A132, 1-(benzo[b]thiophen-3-ylmethyl)-2-(5-chloropyridin-3-yl)-4-methyl-1H-imidazole-5-carboxylic acid]"
5,* *,"Cc1nc(-c2cncc(F)c2)n(Cc2csc3ccccc23)c1C(=O)O [Compound A133, 1-(benzo[b]thiophen-3-ylmethyl)-2-(5-fluoropyridin-3-yl)-4-methyl-1H-imidazole-5-carboxylic acid]"
6,* * *,"O=C(O)c1c(C(F)(F)F)nc(-c2cncc(F)c2)n1Cc1cc(Cl)ccc1Cl [Compound A136, 1-(2,5-dichlorobenzyl)-2-(5-fluoropyridin-3-yl)-4-(trifluoromethyl)-1H-imidazole-5-carboxylic acid]"
7,* *,"Cc1nc(-c2cncc(C(F)(F)F)c2)n(Cc2cccc3ccccc23)c1C(=O)O [Compound A138, 4-methyl-1-(naphthalen-1-ylmethyl)-2-(5-(trifluoromethyl)pyridin-3-yl)-1H-imidazole-5-carboxylic acid]"
8,* * *,"O=C(O)c1c(C(F)(F)F)nc(-c2cncc(C(F)(F)F)c2)n1Cc1cc(Cl)ccc1Cl [Compound A140, 1-(2,5-dichlorobenzyl)-4-(trifluoromethyl)-2-(5-(trifluoromethyl)pyridin-3-yl)-1H-imidazole-5-carboxylic acid]"
9,* *,"Cc1nc(-c2cncc(F)c2)n(Cc2csc3cccc(Cl)c23)c1C(=O)O [Compound A141, 1-((4-chlorobenzo[b]thiophen-3-yl)methyl)-2-(5-fluoropyridin-3-yl)-4-methyl-1H-imidazole-5-carboxylic acid]"
10,* * *,"Cc1nc(-c2cncc(Cl)c2)n(Cc2csc3cccc(Cl)c23)c1C(=O)O [Compound A142, 1-((4-chlorobenzo[b]thiophen-3-yl)methyl)-2-(5-chloropyridin-3-yl)-4-methyl-1H-imidazole-5-carboxylic acid]"
11,* * *,"Cc1nc(-c2cncc(C(F)(F)F)c2)n(Cc2csc3cccc(Cl)c23)c1C(=O)O [Compound A143, 1-((4-chlorobenzo[b]thiophen-3-yl)methyl)-4-methyl-2-(5-(trifluoromethyl)pyridin-3-yl)-1H-imidazole-5-carboxylic acid]"
12,* * *,"CC(C)c1nc(-c2cncc(Cl)c2)n(Cc2cccc3ccccc23)c1C(=O)O [Compound A144, 2-(5-chloropyridin-3-yl)-4-isopropyl-1-(naphthalen-1-ylmethyl)-1H-imidazole-5-carboxylic acid]"
13,* * *,"O=C(O)c1c(C2CC2)nc(-c2cncc(Cl)c2)n1Cc1cccc2ccccc12 [Compound A145, 2-(5-chloropyridin-3-yl)-4-cyclopropyl-1-(naphthalen-1-ylmethyl)-1H-imidazole-5-carboxylic acid]"
14,* * *,"CC(C)c1nc(-c2cncc(Cl)c2)n(Cc2cc(Cl)ccc2Cl)c1C(=O)O [Compound A146, 2-(5-chloropyridin-3-yl)-1-(2,5-dichlorobenzyl)-4-isopropyl-1H-imidazole-5-carboxylic acid]"
15,* *,"CCc1nc(-c2cncc(F)c2)n(Cc2cccc3ccccc23)c1C(=O)O [Compound A148, 4-ethyl-2-(5-fluoropyridin-3-yl)-1-(naphthalen-1-ylmethyl)-1H-imidazole-5-carboxylic acid]"
16,* * *,"CCc1nc(-c2cncc(Cl)c2)n(Cc2cccc3ccccc23)c1C(=O)O [Compound A149, 2-(5-chloropyridin-3-yl)-4-ethyl-1-(naphthalen-1-ylmethyl)-1H-imidazole-5-carboxylic acid]"
17,* * *,"CCc1nc(-c2cncc(F)c2)n(Cc2cc(Cl)ccc2Cl)c1C(=O)O [Compound A150, 1-(2,5-dichlorobenzyl)-4-ethyl-2-(5-fluoropyridin-3-yl)-1H-imidazole-5-carboxylic acid]"
18,* * *,"CCc1nc(-c2cncc(Cl)c2)n(Cc2cc(Cl)ccc2Cl)c1C(=O)O [Compound A151, 2-(5-chloropyridin-3-yl)-1-(2,5-dichlorobenzyl)-4-ethyl-1H-imidazole-5-carboxylic acid]"
19,* *,"CC(C)c1nc(-c2cncc(F)c2)n(Cc2cccc3ccccc23)c1C(=O)O [Compound A152, 2-(5-fluoropyridin-3-yl)-4-isopropyl-1-(naphthalen-1-ylmethyl)-1H-imidazole-5-carboxylic acid]"
20,* *,"O=C(O)c1c(C2CC2)nc(-c2cncc(F)c2)n1Cc1cccc2ccccc12 [Compound A153, 4-cyclopropyl-2-(5-fluoropyridin-3-yl)-1-(naphthalen-1-ylmethyl)-1H-imidazole-5-carboxylic acid]"
21,* * *,"CC(C)c1nc(-c2cncc(F)c2)n(Cc2cc(Cl)ccc2Cl)c1C(=O)O [Compound A154, 1-(2,5-dichlorobenzyl)-2-(5-fluoropyridin-3-yl)-4-isopropyl-1H-imidazole-5-carboxylic acid]"

# Same assay, conditions: HEK 293 cells expressing human URAT1; 14C-labeled uric acid 25 μM; uptake 37° C. for 5 min; read-out: Inhibitory Activity (IC50 of uric acid transport inhibition)
row,IC50 [µM],SMILES
1,2 to 20,Cc1nc(-c2cccnc2)n(Cc2cc(Cl)ccc2Cl)c1C(=O)NS(=O)(=O)C1CC1 [Compound A112]
2,2 to 20,Cc1nc(-c2cccnc2)n(Cc2cccc3ccsc23)c1C(=O)NS(C)(=O)=O [Compound A115]
3,2 to 20,Cc1nc(-c2cccnc2)n(Cc2cccc3ccsc23)c1C(=O)NS(=O)(=O)C1CC1 [Compound A116]
4,2 to 20,COc1cncc(-c2nc(C)c(C(=O)O)n2Cc2cccc3ccccc23)c1 [Compound A120]
5,2 to 20,Cc1cncc(-c2nc(C)c(C(=O)O)n2Cc2cccc3ccccc23)c1 [Compound A124]
6,2 to 20,COc1ncccc1-c1nc(C)c(C(=O)O)n1Cc1cccc2ccccc12 [Compound A125]
7,2 to 20,COc1ccccc1Oc1cncc(-c2nc(C)c(C(=O)O)n2Cc2cccc3ccccc23)c1 [Compound A131]
